In patent publication US11174245B2, “Benzimidazole compounds and derivatives as EGFR inhibitors” (Boehringer Ingelheim International GmbH, priority 2018, dated 2021):

Target: EGFR del19 T790M C797S protein in Ba/F3 cells (Homo sapiens, UniProt P00533, C797S/DEL746-750/T790M)
Assay: pEGFR assay (AlphaScreen Surefire, EGFR Tyr1068 phosphorylation)
Assay type: cell-based
Procedure: Transduced cells were selected using puromycin. Following selection, IL-3 was withdrawn and IL-3 independent cells cultured. p-EGFR Tyr1068 was determined using the AlphaScreen Surefire pEGF Receptor (Tyr1068) Assay (PerkinElmer, TGRERS). […] Subsequently, 60.000 cells/well in 60 μL were added. Cells were incubated with compound for 4 h at 37° C. […] The mixture was incubated at room temperature with shaking (700 rpm) for 20 min. After centrifugation, 4 μL of the lysate were transferred to Proxiplates. […] Plates were shaken for 1 min (1400 rpm) and incubated for 2 h at room temperature in the dark.
The results of the assay are provided as IC50 values (see table 12).

Chain of EGFR del19 T790M C797S protein in Ba/F3 cells (P00533 with tags, fused parts or gaps C797S/DEL746-750/T790M limits assumed): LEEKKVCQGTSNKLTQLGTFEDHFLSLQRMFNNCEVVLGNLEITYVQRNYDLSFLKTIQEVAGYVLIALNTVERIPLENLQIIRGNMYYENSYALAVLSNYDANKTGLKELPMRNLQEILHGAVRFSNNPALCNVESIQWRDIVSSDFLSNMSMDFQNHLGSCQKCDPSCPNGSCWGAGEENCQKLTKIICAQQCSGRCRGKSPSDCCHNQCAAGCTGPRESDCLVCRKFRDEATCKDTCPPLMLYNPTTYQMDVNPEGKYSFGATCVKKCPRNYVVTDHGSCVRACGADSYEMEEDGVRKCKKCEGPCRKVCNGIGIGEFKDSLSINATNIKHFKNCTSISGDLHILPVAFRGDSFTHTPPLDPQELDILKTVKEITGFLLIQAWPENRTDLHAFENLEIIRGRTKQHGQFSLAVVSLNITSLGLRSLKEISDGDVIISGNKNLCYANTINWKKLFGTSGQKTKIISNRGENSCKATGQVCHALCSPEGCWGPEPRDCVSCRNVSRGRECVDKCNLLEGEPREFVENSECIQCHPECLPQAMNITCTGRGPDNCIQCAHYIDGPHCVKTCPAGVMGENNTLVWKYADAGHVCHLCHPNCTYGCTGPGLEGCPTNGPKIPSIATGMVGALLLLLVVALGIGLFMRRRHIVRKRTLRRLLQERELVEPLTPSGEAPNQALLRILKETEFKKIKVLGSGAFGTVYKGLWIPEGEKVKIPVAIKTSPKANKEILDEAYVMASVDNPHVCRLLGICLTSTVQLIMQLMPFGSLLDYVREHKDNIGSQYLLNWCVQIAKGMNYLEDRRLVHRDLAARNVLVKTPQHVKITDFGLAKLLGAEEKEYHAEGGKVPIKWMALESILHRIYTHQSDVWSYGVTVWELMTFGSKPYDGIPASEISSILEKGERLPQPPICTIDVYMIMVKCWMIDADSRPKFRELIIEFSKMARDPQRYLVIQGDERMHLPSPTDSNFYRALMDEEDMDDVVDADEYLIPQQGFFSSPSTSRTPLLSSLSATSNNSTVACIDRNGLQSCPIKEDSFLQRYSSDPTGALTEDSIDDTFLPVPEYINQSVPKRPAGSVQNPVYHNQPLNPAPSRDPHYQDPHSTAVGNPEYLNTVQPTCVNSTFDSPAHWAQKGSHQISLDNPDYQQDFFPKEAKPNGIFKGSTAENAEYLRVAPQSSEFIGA

Structure (SMILES) | IC50 [nM]
Cc1ccncc1-c1cc(C(=O)/N=c2\[nH]c3ccccc3n2CC(C)(C)O)ccn1 [I-016] | 58
CC(C)(O)Cn1/c(=N/C(=O)c2ccnc(-c3cnccc3Cl)c2)[nH]c2ccccc21 [I-027] | 55
CC(C)(O)Cn1/c(=N/C(=O)c2ccnc(-c3ccsc3)c2)[nH]c2ccccc21 [I-050] | 24
CC(C)(O)Cn1/c(=N/C(=O)c2ccnc(-c3cccs3)c2)[nH]c2ccccc21 [I-051] | 27
Cn1cc(-c2cc(C(=O)/N=c3\[nH]c4cc(CN5CCCCC5)ccc4n3CC(C)(C)O)ccn2)cn1 [I-057] | 27
Cn1cc(-c2cc(C(=O)/N=c3\[nH]c4cc(CN5CCOCC5)ccc4n3CC(C)(C)O)ccn2)cn1 [I-058] | 93
Cn1cc(-c2cc(C(=O)/N=c3\[nH]c4cc(C(C)(C)O)ccc4n3CC(C)(C)O)ccn2)cn1 [I-063] | 74
COCCN(C)c1ccc2c(c1)[nH]/c(=N\C(=O)c1ccnc(-c3cccnc3)c1)n2CC(C)(C)O [I-065] | 30
CC(C)(O)Cn1/c(=N/C(=O)c2ccnc(-c3cccnc3)c2)[nH]c2cc(Cl)ccc21 [I-066] | 23
CC(C)(O)Cn1/c(=N/C(=O)c2ccnc(-c3cccnc3)c2)[nH]c2cc(CO)ccc21 [I-067] | 16
Cn1cc(-c2cc(C(=O)/N=c3\[nH]c4cc(NCC5CCOCC5)ccc4n3CC(C)(C)O)ccn2)cn1 [I-68] | 14
Cc1cc2c(cc1N1CCN(C(C)C)CC1)[nH]/c(=N\C(=O)c1ccnc(-c3cnn(C)c3)c1)n2CC(C)(C)O [I-69] | 26
Cc1cc2c(cc1N1CCCCC1)[nH]/c(=N\C(=O)c1ccnc(-c3cnn(C)c3)c1)n2CC(C)(C)O [I-70] | 94
COCCCNc1cc2[nH]/c(=N\C(=O)c3ccnc(-c4cnn(C)c4)c3)n(CC(C)(C)O)c2cc1C [I-71] | 86
C[C@@H]1CN(c2ccc3c(c2)[nH]/c(=N\C(=O)c2ccnc(-c4cnn(C)c4)c2)n3CC(C)(C)O)C[C@H](C)N1C [I-73] | 81
Cn1cc(-c2cc(C(=O)/N=c3\[nH]c4cc(N5CCC6(CCOCC6)CC5)ccc4n3CC(C)(C)O)ccn2)cn1 [I-74] | 71
Cn1cc(-c2cc(C(=O)/N=c3\[nH]c4cc(N5CCOC(C)(C)C5)ccc4n3CC(C)(C)O)ccn2)cn1 [I-75] | 54
CC(C)(O)Cn1/c(=N/C(=O)c2ccnc(-c3cccnc3)c2)[nH]c2cc(N3CCCCC3)ccc21 [I-77] | 76

Structure (SMILES) | IC50 [nM]
CN(C)c1ccc2c(c1)[nH]/c(=N\C(=O)c1ccnc(-c3cccnc3)c1)n2CC(C)(C)O [I-79] | 42
CN(C)C1CCN(c2ccc3c(c2)[nH]/c(=N\C(=O)c2ccnc(-c4cnn(C)c4)c2)n3CC(C)(C)O)C1 (stereo not drawn) [I-80] | 89
CN(C)CCNc1ccc2c(c1)[nH]/c(=N\C(=O)c1ccnc(-c3cnn(C)c3)c1)n2CC(C)(C)O [I-82] | 14
Cn1cc(-c2cc(C(=O)/N=c3\[nH]c4cc(NCCN5CCCC5)ccc4n3CC(C)(C)O)ccn2)cn1 [I-83] | 14
CCc1ccc2[nH]/c(=N\C(=O)c3ccnc(-c4cccnc4)c3)n(CC(C)(C)O)c2c1 [I-84] | 21
CN(C)CCOCCNc1ccc2c(c1)[nH]/c(=N\C(=O)c1ccnc(-c3cnn(C)c3)c1)n2CC(C)(C)O [I-87] | 81
COc1ncccc1-c1cc(C(=O)/N=c2\[nH]c3ccccc3n2CC(C)(C)O)ccn1 [I-92] | 20
CN(C)c1cccc(-c2cc(C(=O)/N=c3\[nH]c4ccccc4n3CC(C)(C)O)ccn2)c1 [I-94] | 99
Cn1cnc2c(-c3cc(C(=O)/N=c4\[nH]c5ccccc5n4CC(C)(C)O)ccn3)cccc21 [I-95] | 74
O=C(/N=c1\[nH]c2ccccc2n1[C@H]1CC[C@@H](O)CC1)c1ccnc(-c2csc3ccccc23)c1 [I-96] | 39
COc1ccccc1-c1cc(C(=O)/N=c2\[nH]c3ccccc3n2[C@H]2CCCC[C@@H]2O)ccn1 [I-97] | 14
COc1cccc(-c2cc(C(=O)/N=c3\[nH]c4ccccc4n3CC(C)(C)O)ccn2)c1 [I-99] | 42
CNC(=O)c1cccc(-c2cc(C(=O)/N=c3\[nH]c4ccccc4n3CC(C)(C)O)ccn2)c1 [I-100] | 76
CN(C)C(=O)c1cccc(-c2cc(C(=O)/N=c3\[nH]c4ccccc4n3CC(C)(C)O)ccn2)c1 [I-103] | 43
CC(C)(O)Cn1/c(=N/C(=O)c2ccnc(-c3cccc(O)c3)c2)[nH]c2ccccc21 [I-104] | 12
CC(C)(O)Cn1/c(=N/C(=O)c2ccnc(-c3ccccn3)c2)[nH]c2ccccc21 [I-106] | 97
CN(C)Cc1cccc(-c2cc(C(=O)/N=c3\[nH]c4ccccc4n3C3CCCCC3)ccn2)c1 [I-117] | 12
CNC(=O)Cc1ccc2c(c1)[nH]/c(=N\C(=O)c1ccnc(-c3cccnc3)c1)n2CC(C)(C)O [I-131] | 92

Other lines, results leading:

IC50 [nM] | Structure (SMILES)
3 | CC(C)(O)Cn1/c(=N/C(=O)c2ccnc(-n3cnc4cccnc43)c2)[nH]c2ccccc21 [I-040]
1 | CC(C)(O)Cn1/c(=N/C(=O)c2ccnc(-c3cnc4cccnn34)c2)[nH]c2ccccc21 [I-041]
6 | Cn1cc(-c2cc(C(=O)/N=c3\[nH]c4ccccc4n3C3CCCOC3)ccn2)cn1 (stereo not drawn) [I-043]
2 | Cc1c(-c2cc(C(=O)/N=c3\[nH]c4ccccc4n3C3CCCCC3)ccn2)cnn1C [I-044]
2 | COCCN1CCC(c2ccc3c(c2)[nH]/c(=N\C(=O)c2ccnc(-c4cnn(C)c4C)c2)n3CC(C)(C)O)CC1 [I-045]
2 | COCCN1CCC(c2ccc3c(c2)[nH]/c(=N\C(=O)c2ccnc(-c4cccnc4)c2)n3CC(C)(C)O)CC1 [I-046]
3 | COCCN1CCC(c2ccc3c(c2)[nH]/c(=N\C(=O)c2ccnc(-c4cnn(C)c4)c2)n3CC(C)(C)O)CC1 [I-047]
7 | Cn1cc(-c2cc(C(=O)/N=c3\[nH]c4ccccc4n3C3CCOCC3)ccn2)cn1 [I-049]
3 | COc1ccccc1-c1cc(C(=O)/N=c2\[nH]c3cc(CN4CCCCC4)ccc3n2CC(C)(C)O)ccn1 [I-059]
7 | CCc1ccc2c(c1)[nH]/c(=N\C(=O)c1ccnc(-c3cnn(C)c3)c1)n2CC(C)(C)O [I-061]
9 | CC(C)c1ccc2c(c1)[nH]/c(=N\C(=O)c1ccnc(-c3cnn(C)c3)c1)n2CC(C)(C)O [I-062]
9 | Cn1cc(-c2cc(C(=O)/N=c3\[nH]c4cc(NC[C@@H]5CCCO5)ccc4n3CC(C)(C)O)ccn2)cn1 [I-81]
3 | Cn1cc(-c2cc(C(=O)/N=c3\[nH]c4cc(C5CCOCC5)ccc4n3CC(C)(C)O)ccn2)cn1 [I-85]
5 | Cn1cc(-c2cc(C(=O)/N=c3\[nH]c4cc(C5CCOC5)ccc4n3CC(C)(C)O)ccn2)cn1 (stereo not drawn) [I-86]
11 | Cn1ncc2c(-c3cc(C(=O)/N=c4\[nH]c5ccccc5n4CC(C)(C)O)ccn3)cccc21 [I-88]
8 | O=C(/N=c1\[nH]c2ccccc2n1[C@H]1CC[C@@H](O)CC1)c1ccnc(-c2cccc3ccnn23)c1 [I-89]
12 | CC(C)(O)Cn1/c(=N/C(=O)c2ccnc(-c3cccc4ccnn34)c2)[nH]c2ccccc21 [I-90]
6 | CC(C)(O)Cn1/c(=N/C(=O)c2ccnc(-c3cccc4ccoc34)c2)[nH]c2ccccc21 [I-98]

IC50 [nM] | Structure (SMILES)
3 | COc1ccccc1-c1cc(C(=O)/N=c2\[nH]c3ccccc3n2[C@H]2CCC[C@H](O)C2)ccn1 [I-119]
3 | COc1ccccc1-c1cc(C(=O)/N=c2\[nH]c3cc(C4CCNCC4)ccc3n2[C@H]2CC[C@@H](O)CC2)ccn1 [I-120]
2 | COc1ccccc1-c1cc(C(=O)/N=c2\[nH]c3cc(C4CCN(C(C)=O)CC4)ccc3n2[C@H]2CC[C@@H](O)CC2)ccn1 [I-121]
2 | COc1ccccc1-c1cc(C(=O)/N=c2\[nH]c3ccccc3n2[C@@H]2CCCOC2)ccn1 [I-122]
2 | COc1ccccc1-c1cc(C(=O)/N=c2\[nH]c3ccccc3n2[C@H]2CCCOC2)ccn1 [I-123]
2 | COc1ccccc1-c1cc(C(=O)/N=c2\[nH]c3cc(C4CCN(C)CC4)ccc3n2[C@H]2CC[C@@H](O)CC2)ccn1 [I-124]
11 | O=C(/N=c1\[nH]c2ccccc2n1[C@H]1CC[C@@H](O)CC1)c1ccnc(-n2ccc3ccccc32)c1 [I-125]
2 | COc1ccccc1-c1cc(C(=O)/N=c2\[nH]c3ccccc3n2[C@H]2CCC[C@@H](O)C2)ccn1 [I-127]
5 | COc1ccccc1-c1cc(C(=O)/N=c2\[nH]c3ccccc3n2[C@@H]2CCC[C@H](O)C2)ccn1 [I-129]
7 | COc1ccccc1-c1cc(C(=O)/N=c2\[nH]c3ccccc3n2[C@@H]2CCCC[C@H]2O)ccn1 [I-132]
1 | Cn1cc(-c2cc(C(=O)/N=c3\[nH]c4ccccc4n3[C@H]3CC[C@@H](O)CC3)cc(F)n2)cn1 [I-133]
1 | Cc1ccc2c(c1)[nH]/c(=N\C(=O)c1ccnc(-c3cnn(C)c3)c1)n2[C@H]1CC[C@@H](O)CC1 [I-134]
2 | COc1ccccc1-c1cc(C(=O)/N=c2\[nH]c3ccccc3n2[C@@H]2CCC[C@@H](O)C2)ccn1 [I-139]
2 | COc1ccccc1-c1cc(C(=O)/N=c2\[nH]c3cc(CN4CC(OC)C4)ccc3n2[C@H]2CC[C@@H](O)CC2)ccn1 [I-140]
3 | COc1ccccc1-c1cc(C(=O)/N=c2\[nH]c3cc(CN4CCOCC4)ccc3n2[C@H]2CC[C@@H](O)CC2)ccn1 [I-142]
4 | COc1cnccc1-c1cc(C(=O)/N=c2\[nH]c3ccccc3n2[C@H]2CC[C@@H](O)CC2)ccn1 [I-147]
4 | O=C(/N=c1\[nH]c2ccccc2n1[C@H]1CC[C@@H](O)CC1)c1ccnc(-n2ccc3cccnc32)c1 [I-150]
4 | COc1ccccc1-c1cc(C(=O)/N=c2\[nH]c3cc(CN4CC[C@H](OC)C4)ccc3n2[C@H]2CC[C@@H](O)CC2)ccn1 [I-151]
